Assay results taken from patent US10416153B2, “Chemical fluorescent probes for detecting biofilms” (priority 2015, dated 2019).

Key:
[1] = molecular target: purified amyloid (Pseudomonas aeruginosa, UniProt Q9I2F0); experiment: Surface plasma resonance assay with purified amyloid immobilized on chips; type: binding
Protocol: In a biofilm screening, two different types of biofilms (biofilm versus amyloid deficient biofilm) were treated with compounds and hits were identified by selective staining of biofilms containing amyloid structures. Thus, the binding affinity of four compounds with the purified amyloid subunit (fibril) protein was validated by surface plasma resonance assay. The subunit protein was immobilized on chips and each of compounds was flowed continuously. Thioflavin T, BDN1 B2 and BDNAC3 E6 were tested with hit compounds. […] (A) TEM images of purified amyloid proteins. Scale bar=400 nm. (B) Surface plasma resonance assay of four amyloid targeting compounds with purified amyloid.
Amyloids were prepared in HEPES buffer (0.01 M HEPES, pH 7.4, 0.15 M NaCl, 3 mM EDTA and 0.005% P20). Amyloid fibers were fragmented with sonication at 80 Hz for 10 s and centrifuged at 14 000 g for 30 s to remove any large fibers. Concentrate (40 μL) was mixed with 10 mM sodium acetate (120 μL), pH 5.5 right before immobilization.
SPR experiments were performed at 25° C. using Biacore T-200 biosensor with research grade CM5-S sensor chips (Biacore, GE Healthcare). Carboxymethylated CM5-S chips were activated using 70 μL of 0.2 M 1-ethyl-3-[3-(dimethylamino)propyl] carbodiimide hydrochloride (EDC) and 0.05 M N-hydroxysuccinimide (NHS) in a 1:1 ratio. Amyloid in sodium acetate solution (100 μL) was injected over the activated surface until an immobilization level of 7700 response units (RU) was reached. Ethanolamine hydrochloride (1.0 M), pH 8.5 was injected across the surface for 5 min to block any residual activated-unreacted carboxyl groups. Compounds were dissolved into HEPES buffer containing final concentration of 5% DMSO and serially diluted to 340 nM, 1.03, 3.09, 9.26, 27.78, 83.33 μM. Tht+ was prepared similarly as positive control. Replicates of the diluted compounds were injected across a unmodified flow cell and amyloid-immobilized flow cell in a serial manner for association phase of 60 s followed by dissociation phase of 5 min. […] The chip surface was rinsed using HEPES buffer. All sensorgrams were double-referenced with responses from unmodified channel and blank HEPES buffer injections. Equilibrium responses from the compounds were plotted against logarithmic of their corresponding concentrations where the binding affinities were calculated from 50% saturation.
First batch of screening was done under varying amyloid expression conditions for specifically isolating amyloid targeting compounds and four compounds were isolated from cell based screening. […] Finally, four compounds were examined by surface plasma resonance assay whether those have binding specificity with putative target, namely amyloid. Four hit compounds were examined with thioflavin T and two negative controls on chips after immobilizing purified amyloid.

[2] = tested on: P. aeruginosa (PAO1-GFP); experiment: Eye infection model, imaging of infected cornea under TRITC channel; type: in vivo; conditions: mouse cornea infected with PAO1-GFP for 2 days, 10 minutes incubation with compound
Protocol: (A) Propagation of Pseudomonas aeruginosa (PAO1-GFP) after infecting into mouse eyes. GFP signals were detected after 12 hours later after infecting bacteria and signals were fully saturated after 24 hours later; Scale bar=2 mm. (B) Tests of amyloid targeting compounds in eye infection models. The model was generated by inoculation of a GFP tagged P. aeruginosa PAO1 strain into the eye after making scratches in cornea. Images were taken in bright field and TRITC from ketamine/xylazine anesthetized mice and compounds signals were examined under TRITC channel after incubation with compounds for 10 minutes at room temperature. Scale bar=2 mm.
P. aeruginosa (PAO1-GFP) was grown at 37° C. in ABTGC media for 16 h. 500 μL of cultured PAO1-GFP was transferred to 1.5 mL Eppendorf tube and centrifuged at 14 000 g for 3 min. Supernatant was removed and pellet was washed with PBS buffer 3 times. Finally, pellet was resuspended in 250 μL of PBS buffer.
Mice were anesthetized ketamine/xylazine by peritoneal injection before scratches were made in cornea with blade. PAO1-GFP (1 μL, 2×107˜10^8 CFU) dissolved in PBS buffer was treated in left eye and PBS buffer was treated in right eye. P. aeruginosa inoculated mice were incubated for 2 days before in vivo experiments. Animal handling was in accordance with the Institutional Aminal Care and Use Committee of Singapore Bioimaging Consortium (Agency of Science, Technology and Research, Singapore).
Biofilm is stained by amyloid targeting compounds through interacting with FAP proteins which is one of the components for intact biofilm. Thus, amyloid targeting compounds were tested in eye infection model which is one of the naturally reported symptoms of P. aeruginosa containing biofilms. Eye infection model was generated in black mouse. […] GFP signals were detected after 12 hours incubation with P. aeruginosa-GFP bacteria.
Fluorescence signals under TRITC channel were checked to confirm infection on cornea and amyloid compounds were tested under TRITC channel after incubation for 10 minutes. […]

[3] = tested on: P. aeruginosa biofilm (PAO1-GFP); experiment: Mouse implant model, silicone tubes coated with PAO1-GFP biofilm; type: in vivo, BALB/c mice; conditions: 100 μM (200 μL) injected via the peritoneal cavity, 2 h before recovering implants; listed as CDy11
Description: (§1) CLSM images of a GFP tagged P. aeruginosa PAO1 strain colonizing silicone implants after removal from BALB/c mice at day 1 post insertion. Green fluorescent areas represent P. aeruginosa. Insertion of silicone tube into mice which was precoated with (A) PAO1Δfap-GFP and (B) PAO1-GFP biofilms. Images of the microcolonies adhering to the silicone implants with CDy11. Only PAO1-GFP biofilms coated silicone tube was stained by CDy11; Scale bars=10 μm.
(§2) One bacterial colony (PAO1-GFP) was picked up from the plate to inoculate an overnight culture in LB (Luria Broth) media in 37° C. incubator with 110 rpm/min for 20 h. Silicone tubes (Ole Dich) were cut with a thickness of 4 mm and were sterilized in 0.5% NaClO for overnight. Next day, 25 mL of overnight cultured media was transferred to 50 mL conical tube and pellet was collected by centrifuging at 3000 rpm for 10 min. Subsequently, pellet was suspended with 2 mL of LB media before optical density was observed under 600 nm wavelength.
(§3) Sterilized silicone was washed twice in 0.9% NaCl solution. Silicone tubes (8 pieces) in 50 mL flask were incubated with 10 mL of diluted bacteria (OD600=0.1) in 0.9% NaCl solution in rotationary shaker at 37° C. with 110 rpm/min for 20 h. […]
(§4) All silicone tubes were collected after 2 h incubation to observe CDy11 fluorescence of the inner surface of the silicone tube by means of laser confocal scanning microscopy. […]

[4] = tested on: PAO1Δfap-GFP strain biofilm; experiment: Mouse implant model, silicone tubes coated with PAO1Δfap-GFP biofilm; type: in vivo, BALB/c mice; conditions: 100 μM (200 μL) injected via the peritoneal cavity, 2 h before recovering implants
Description: as §1, §2, §3, §4

[5] = tested on: Immune cells; experiment: Mouse implant model, silicone tubes without P. aeruginosa precoating; type: in vivo, BALB/c mice; conditions: same amount injected via the peritoneal cavity; data not shown
Protocol: After anesthesia of mice with ketamine/xylazine mix by intraperitoneal injection, the mouse was placed ventral side up on plate. Fur was clipped and the skin was swabbed with 70% ethanol. An incision of approximately 0.5-1 cm was made in the left groin area. Then an implant prepared the day before was inserted into peritoneal cavity via the incision. The incision was closed with a suture and healed on a warm pad at 26-28° C.
The inventors also applied a mouse implant model to test the capacity of CDy11 (BDNAC3 D8) to detect P. aeruginosa biofilms in a surgical format. Silicone tubes were precolonized by bacteria and subsequently inserted into the peritoneal cavity 1 day before the experiment. BALB/c mice were assigned to each of the two groups and 100 μM CDy11 (200 μL) was injected into the mice via the peritoneal cavity 2 h before recovering the implants. As a mock control, a similar volume of buffer was injected into the second set of mice. In addition, CDy11 was injected into a set of mice which had been installed with uncolonized silicone tubes in the peritoneal cavity.
All silicone tubes were collected after 2 h incubation to observe CDy11 fluorescence of the inner surface of the silicone tube by means of laser confocal scanning microscopy. […] The silicone tubes without P. aeruginosa precoating were also examined by injection of same amount of CDy11. […]

Chain of purified amyloid (Q9I2F0 25-340): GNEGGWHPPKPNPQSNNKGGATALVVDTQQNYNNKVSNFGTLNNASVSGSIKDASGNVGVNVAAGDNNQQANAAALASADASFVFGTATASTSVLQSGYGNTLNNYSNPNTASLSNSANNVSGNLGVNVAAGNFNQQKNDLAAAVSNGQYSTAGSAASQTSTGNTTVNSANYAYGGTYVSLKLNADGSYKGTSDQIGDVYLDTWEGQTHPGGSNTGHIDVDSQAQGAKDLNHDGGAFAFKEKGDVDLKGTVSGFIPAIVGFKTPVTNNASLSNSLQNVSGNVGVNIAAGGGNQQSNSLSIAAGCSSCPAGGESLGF

Compound	Kd [1]	visualization of infected eyes [2]	staining of PAO1-GFP biofilm coated silicone tube [3]	staining of PAO1Δfap-GFP biofilm coated silicone tube [4]	staining of immune cells in silicone tubes without P. aeruginosa precoating [5]
COc1cc(Cl)cc(/C=C/c2cc(C)c3n2[B-](F)(F)[N+]2=CC=CC2=C3c2ccc(N)cc2)c1OC [BDN2 H2]	61 ± 3 µM	visualized			
COc1cc(/C=C/c2cc(C)c3n2[B-](F)(F)[N+]2=CC=CC2=C3c2ccc(N)cc2)c(Br)c(Br)c1O [BDN3 F3]	16 ± 1 µM				
Cc1cc(/C=C/c2ccc(-c3ccc([N+](=O)[O-])cc3)o2)n2c1C(c1ccc(N)cc1)=C1C=CC=[N+]1[B-]2(F)F [BDN3 G7]	28 ± 5 µM	visualized			
COc1ccc(/C=C/c2cc(C)c3n2[B-](F)(F)[N+]2=CC=CC2=C3c2ccc(NC(C)=O)cc2)c(F)c1 [BDNAC3 D8]	29 ± 2 µM	visualized	specifically stained	not stained	not stained
Cc1ccc2c(c1)sc(-c1ccc(N(C)C)cc1)[n+]2C [thioflavin T, reference compound]	85 ± 7 µM				
